Here are results for four molecules from patent US11890266B2 (University of Canberra, priority 2016, dated 2024).

Experiment [1] concerns form-deprivation myopia (FDM) in chick eyes fitted with a translucent diffuser. Nature of the experiment: Form-deprivation myopia (FDM) induced by translucent diffuser, five day treatment; axial length and refraction. The format is in vivo, White Cockerel chickens. The settings on record: Example 15, five days; for effect of intravitreal injection versus topical administration on refraction and axial elongation: daily administration; for axial elongation in comparison with animals fitted with a translucent diffuser only (G2) / myopic shift in refraction in comparison with animals fitted with a translucent diffuser only (G2): ADTN 1 mM, atropine 2 mM, pirenzepine 16 mM. On the procedure: For the drug treatments, the compositions were administered under light isoflurane anesthesia using intravitreal injection or topical administration.
Intravitreal injection was performed as follows: Using a 30 gauge needle attached to a Hamilton syringe, 10 μL (0.01 mL) of the test composition was injected into the vitreous chamber of the eye once daily.
Topical administration was performed as follows: Two drops of 40 μL (two drops of 0.04 mL, or 0.08 mL total) of the test composition was applied to the corneal surface of the eye using an eye drop dispenser. Drops were applied to the chicks twice daily.
To determine changes in the rate of eye growth and the development of myopia, changes in axial length and refraction were assessed. Myopia is associated with excessive elongation of the eye in the axial direction relative to normal growth rates. Such excessive axial elongation leads to a relative myopic change in refraction. Axial length and refraction were measured using A-scan ultrasonography (Biometer AL-100; Tomey Corporation, Nagoya, Japan) and automated infrared photo-retinoscopy respectively. Statistical analysis of changes in both refraction and axial length between groups involved a one-way ANOVA test followed by a Student's T-test with Bonferroni correction. All data are presented as the mean±the […] of the mean (SEM). […]
70 male White Cockerel chickens were randomly assigned to one of 14 treatment groups as defined below (n=5 per group) and were treated for a five day period. G1-G14 represent the labelling system used in FIGS. 11 and 12.
ADTN compositions were prepared by dissolving ADTN in a solution containing 0.1% ascorbic acid in 1×PBS to a final concentration of 1 mM (0.03% w/v), and adjusting the pH to 7. Atropine and pirenzepine compositions were prepared by dissolving atropine (in the form of atropine sulfate salt monohydrate) or pirenzepine (in the form of pirenzepine dihydrochloride) in distilled water to a final concentration of 2 mM (0.14% w/v) and 16 mM (0.7% w/v), respectively, and adjusting the pH to 7.
Administration of test compositions and measurement of ocular parameters was performed in accordance with that described in Example 4.

The test system is the same in experiment [2]. Nature of the experiment: Safety and efficacy of topical levodopa in form-deprivation myopia over a four week period. The settings on record: topical 0.3% w/v (15 mM) levodopa composition of Example 1, twice daily, four weeks. The format is in vivo, White Cockerel chickens. How it is done:
Male White Cockerel chickens were kept under normal laboratory light (500 lux, fluorescent lights) on a 12:12 hour light:dark cycle with lights on at 9:30 am and off at 9:30 pm. In all chicks, left eyes were treated experimentally while right eyes remained untreated to serve as a contralateral control. Chicks were randomly assigned to one of four groups (n=6 for each group) and treated over the four week period under the following experimental conditions: • 1. […] Form-deprivation myopia (FDM): Chicks were fitted with a translucent diffuser over their left eye to induce FDM, receiving no further treatment • 3.
Administration of the test compositions was performed in accordance with that described in Example 4.
To determine changes in the rate of eye growth and the development of myopia, axial length and refraction were measured using A-scan ultrasonography (Biometer AL-100; Tomey Corporation, Nagoya, Japan) and automated infrared photo-retinoscopy, respectively. Ocular measurements (axial length and refraction) were made on day one (prior to the commencement of experimentation) and every seven days for four weeks.
A multivariate analysis of variance (MANOVA) with repeated measures design was used to compare the effect of the different treatment regimens over time.

[3] abbreviates: daily topical administration, levodopa 0.03% w/v in combinations.

Take `NC1CCc2cc(O)c(O)cc2C1` (stereo not shown) [ADTN, 2-amino-6,7-dihydroxy-1,2,3,4-tetrahydronaphthalene]: the “effect of intravitreal injection versus topical administration on refraction and axial elongation” value in experiment [1] is “intravitreal injection having a greater effect than topical administration”. For the same molecule, in experiment [1] (daily intravitreal injection), the “axial elongation in comparison with animals fitted with a translucent diffuser only (G2)” value (“axial elongation in comparison … (G2)” for short) is recorded as “decreased axial elongation” and the “myopic shift in refraction in comparison with animals fitted with a translucent diffuser only (G2)” value (“myopic shift in refraction in comparison” below) is “significantly inhibited the myopic shift in refraction”. Moreover, in experiment [1] (setting [3]), the “axial elongation in comparison … (G2)” value is given as “decreased axial elongation” and the “myopic shift in refraction in comparison” value was “significantly inhibited the myopic shift in refraction”.
In the case of `CN1[C@@H]2CC[C@H]1C[C@@H](OC(=O)C(CO)c1ccccc1)C2` (stereo partly shown) [atropine], the “effect of intravitreal injection versus topical administration on refraction and axial elongation” value in experiment [1] is given as “intravitreal injection having a greater effect than topical administration”. In addition, in experiment [1] (daily intravitreal injection), the “axial elongation in comparison … (G2)” value is “decreased axial elongation” and the “myopic shift in refraction in comparison” value was “significantly inhibited the myopic shift in refraction”. For the same molecule, in experiment [1] (setting [3]), the “axial elongation in comparison … (G2)” value was “decreased axial elongation” and the “myopic shift in refraction in comparison” value is on record as “significantly inhibited the myopic shift in refraction”.
As for `N[C@@H](Cc1ccc(O)c(O)c1)C(=O)O` [levodopa], the “axial elongation in comparison to diffusers in the absence of levodopa treatment” value in experiment [2] is given as “decreased axial elongation”.
As for `CN1CCN(CC(=O)N2c3ccccc3C(=O)Nc3cccnc32)CC1` [pirenzepine], in experiment [1], the “effect of intravitreal injection versus topical administration on refraction and axial elongation” value is given as “greater when intravitreally administered”. Also, the “axial elongation in comparison … (G2)” value in experiment [1] (daily intravitreal injection) and in experiment [1] (setting [3]) was “decreased axial elongation” in each case. The “myopic shift in refraction in comparison” value in experiment [1] (daily intravitreal injection) and in experiment [1] (setting [3]) was “significantly inhibited myopic shifts in refractive development” in each case.
